Experimental data: ChEMBL document CHEMBL3612067, “Synthesis of a series of unsaturated ketone derivatives as selective and reversible monoamine oxidase inhibitors” (Bioorg Med Chem, 2015); call rule not given here

Columns and labels:
[1] = target: T1, Amine oxidase [flavin-containing] A (Homo sapiens, UniProt P21397)
T1 sequence (P21397 whole entry): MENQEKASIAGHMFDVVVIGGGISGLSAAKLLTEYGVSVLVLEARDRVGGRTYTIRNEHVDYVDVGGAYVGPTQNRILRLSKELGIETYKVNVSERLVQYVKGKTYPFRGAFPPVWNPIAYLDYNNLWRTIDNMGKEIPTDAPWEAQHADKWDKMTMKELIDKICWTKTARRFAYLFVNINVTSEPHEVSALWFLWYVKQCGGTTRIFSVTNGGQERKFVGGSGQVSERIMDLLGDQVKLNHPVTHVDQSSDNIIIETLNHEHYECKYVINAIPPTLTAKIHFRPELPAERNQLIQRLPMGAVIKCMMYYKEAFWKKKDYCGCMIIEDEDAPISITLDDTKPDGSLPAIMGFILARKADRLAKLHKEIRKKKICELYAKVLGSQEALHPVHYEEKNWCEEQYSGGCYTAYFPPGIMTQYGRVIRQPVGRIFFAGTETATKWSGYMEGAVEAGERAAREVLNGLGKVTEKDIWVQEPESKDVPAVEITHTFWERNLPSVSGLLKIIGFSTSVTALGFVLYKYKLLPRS

[2] = target: T2, Amine oxidase [flavin-containing] B (Homo sapiens, UniProt P27338)
T2 sequence (P27338 whole entry): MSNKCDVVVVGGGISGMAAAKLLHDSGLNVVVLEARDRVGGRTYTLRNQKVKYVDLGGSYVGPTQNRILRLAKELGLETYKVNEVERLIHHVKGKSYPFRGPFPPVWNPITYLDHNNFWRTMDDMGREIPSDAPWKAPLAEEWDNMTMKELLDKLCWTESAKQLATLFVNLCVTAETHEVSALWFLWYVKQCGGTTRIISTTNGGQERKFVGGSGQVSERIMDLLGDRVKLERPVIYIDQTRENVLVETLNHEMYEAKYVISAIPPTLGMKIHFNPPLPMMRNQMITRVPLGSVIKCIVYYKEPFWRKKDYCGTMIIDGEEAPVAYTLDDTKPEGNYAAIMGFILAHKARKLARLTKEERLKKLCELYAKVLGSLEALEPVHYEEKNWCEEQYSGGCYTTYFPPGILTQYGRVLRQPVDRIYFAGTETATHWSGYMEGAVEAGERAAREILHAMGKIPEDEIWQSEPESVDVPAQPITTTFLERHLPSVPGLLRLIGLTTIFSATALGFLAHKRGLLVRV

[3] = target: T2, Amine oxidase [flavin-containing] B; conditions: 0.5 h, read-out: INH
[4] = Effect on H2O2 scavenging activity of the compound up to 50 uM after 1.5 hrs by Amplex red/horseradish peroxidase detection method; type: physicochemical
[5] = target: T2, Amine oxidase [flavin-containing] B; assay: Reversible inhibition of recombinant human MAOB using benzylamine as substrate at 2 uM measured after 3 times washout of drug by Amplex red based spectrophotometric analysis
[6] = Effect on H2O2 scavenging activity of the compound after 1.5 hrs by Amplex red/horseradish peroxidase detection method; type: physicochemical

| IC50 [1] | IC50 [2] | inhibition at 2 µM [3] | Activity [4] | inhibition (INH) [5] | Structure (SMILES) | Activity [6] |
| --- | --- | --- | --- | --- | --- | --- |
| > 100 µM | 3.37 µM | – | – | – | O=C(/C=C/c1ccccc1C(F)(F)F)Nc1cccc(F)c1 | – |
| > 100 µM | > 10 µM | – | – | – | COc1ccc(/C=C/C(=O)c2ccc(OC)cc2)cc1 [4,4'-DIMETHOXYCHALCONE] | – |
| > 100 µM | 0.283 µM | – | – | – | O=C(/C=C/c1ccc(C(F)(F)F)cc1)Nc1cccc(F)c1 | – |
| > 100 µM | 0.057 µM | – | – | – | O=C(/C=C/c1ccccc1C(F)(F)F)c1ccc(O)cc1 | – |
| > 100 µM | 2.12 µM | – | – | – | COc1cccc(C(=O)/C=C/c2ccccc2C(F)(F)F)c1 | – |
| > 100 µM | 0.056 µM | > 80% | Not Active | Active | COc1ccc(C(=O)/C=C/c2ccccc2F)cc1 | – |
| > 100 µM | 5.98 µM | – | – | – | O=C(/C=C/c1ccccc1C(F)(F)F)Nc1cccc(O)c1 | – |
| > 100 µM | > 10 µM | – | – | – | COc1ccc(NC(=O)/C=C/c2ccccc2Cl)cc1 | – |
| > 100 µM | 2.82 µM | – | – | – | O=C(/C=C/c1ccccc1Cl)Nc1ccccc1 | – |
| > 100 µM | 0.069 µM | – | – | – | COc1ccc(C(=O)/C=C/c2ccccc2Cl)cc1 | – |
| > 100 µM | 0.199 µM | – | – | – | COc1ccc(C(=O)/C=C/c2ccc(C(F)(F)F)cc2)cc1 | – |
| > 100 µM | 0.253 µM | – | – | – | COc1ccccc1C(=O)/C=C/c1ccccc1C(F)(F)F | – |
| > 100 µM | 0.016 µM | > 80% | Not Active | Active | COc1ccc(C(=O)/C=C/c2ccccc2C(F)(F)F)cc1 | – |
| > 100 µM | 0.624 µM | – | – | – | COc1ccccc1/C=C/C(=O)c1ccc(O)cc1 | – |
| > 100 µM | 4.89 µM | – | – | – | O=C(/C=C/c1cccc(C(F)(F)F)c1)Nc1cccc(F)c1 | – |
| – | – | – | – | Not Active | C[C@H](NCc1ccc(OCc2cccc(F)c2)cc1)C(N)=O [SAFINAMIDE] | – |
| > 100 µM | 0.471 µM | – | – | – | COc1ccc(C(=O)/C=C/c2ccccc2)cc1 [4'-METHOXYCHALCONE] | – |

| IC50 [1] | IC50 [2] | inhibition at 2 µM [3] | Activity [4] | inhibition (INH) [5] | Structure (SMILES) | Activity [6] |
| --- | --- | --- | --- | --- | --- | --- |
| > 100 µM | > 10 µM | – | – | – | COc1ccc(NC(=O)/C=C/c2ccccc2C(F)(F)F)cc1 | – |
| > 100 µM | 1.4 µM | – | – | – | COc1ccc(C(=O)/C=C/c2cccc(OC)c2)cc1 | – |
| > 100 µM | 0.223 µM | – | – | – | O=C(/C=C/c1ccc(C(F)(F)F)cc1)Nc1ccc(F)cc1 | – |
| > 100 µM | 5.88 µM | – | – | – | O=C(/C=C/c1ccccc1C(F)(F)F)Oc1ccccc1 | – |
| > 100 µM | 0.793 µM | – | – | – | COc1cccc(C(=O)/C=C/c2ccccc2)c1 | – |
| > 100 µM | 2.59 µM | – | – | – | COc1ccc(OC(=O)/C=C/c2ccccc2C(F)(F)F)cc1 | – |
| 9.22 µM | > 10 µM | – | – | – | O=C(/C=C/c1ccccc1C(F)(F)F)Nc1ccc(O)cc1 | – |
| – | – | – | – | – | O=C(O[C@@H]1Cc2c(O)cc(O)cc2O[C@@H]1c1cc(O)c(O)c(O)c1)c1cc(O)c(O)c(O)c1 [EPIGALOCATECHIN GALLATE] | Dose-dependent effect |
| > 100 µM | > 10 µM | – | – | – | COc1ccccc1C(=O)/C=C/c1ccccc1 | – |
| > 100 µM | 0.419 µM | – | – | – | COc1ccc(C(=O)/C=C/c2ccccc2OC)cc1 | – |
| > 100 µM | 5.21 µM | – | – | – | O=C(/C=C/c1ccccc1Cl)Nc1cccc(O)c1 | – |
| > 100 µM | 0.145 µM | – | – | – | COc1ccc(C(=O)/C=C/c2cccc(C(F)(F)F)c2)cc1 | – |
| > 100 µM | 0.58 µM | – | – | – | O=C(/C=C/c1ccc(C(F)(F)F)cc1)Nc1ccccc1F | – |
| > 100 µM | 0.937 µM | – | – | – | COc1ccc(OC(=O)/C=C/c2ccccc2Cl)cc1 | – |
| 16.7 µM | > 10 µM | – | – | – | O=C(/C=C/c1ccccc1Cl)Nc1ccc(O)cc1 | – |
| > 100 µM | 8.39 µM | – | – | – | O=C(/C=C/c1ccccc1C(F)(F)F)Nc1ccccc1 | – |
